The source of these data is ChEMBL document CHEMBL4007492, “Discovery of an Acrylic Acid Based Tetrahydroisoquinoline as an Orally Bioavailable Selective Estrogen Receptor Degrader for ERα+ Breast Cancer” (J Med Chem, 2017).

In brackets after ≈: the same amount, converted by molar mass.

A short description of series [1]: physchem. The settings on record: buffer, pH 6.8.
The conditions of series [2]: pampa, 4 h, 5 µM.
Series [3] relates to Plasma. The experiment in a line: Metabolic stability of the compound in Sprague Dawley rat plasma assessed as compound racemization rate at 5 uM after 4 hrs by UPLC analysis. Type of series: ADME, cell-free.
The test system of series [4] is Plasma. Put plainly: Metabolic stability of the compound in cynomolgus monkey plasma assessed as compound racemization rate at 5 uM after 4 hrs by UPLC analysis. Type of series: ADME, cell-free, Macaca fascicularis.
The nature of series [5]: Stability of the compound in methanol at room temperature assessed as compound racemization rate at 5 uM at pH 6.8 after 1 hr by UPLC analysis. It is filed as physicochemical. The settings on record: pH 6.8, 1 h.
The nature of series [6]: Stability of the compound in aqueous buffer assessed as compound racemization rate at 5 uM at pH 7.4 after 4 hrs by UPLC analysis. The following applies: pH 7.4, 4 h. It is filed as physicochemical.
The nature of series [7]: Stability of the compound in aqueous buffer assessed as compound racemization rate at 5 uM at pH 6.8 after 4 hrs by UPLC analysis. The following applies: pH 6.8, 4 h. It is filed as physicochemical.
Series [8] relates to Plasma. The experiment in a line: Metabolic stability of the compound in C57BL/6 mouse plasma assessed as compound racemization rate at 5 uM after 4 hrs by UPLC analysis. It is filed as ADME, cell-free.
In series [9] the test system is Plasma. The experiment in a line: Metabolic stability of the compound in human plasma assessed as compound racemization rate at 5 uM after 4 hrs by UPLC analysis. It is filed as ADME, cell-free.
For series [10], the system named is Plasma. The experiment in a line: Metabolic stability of the compound in Beagle dog plasma assessed as compound racemization rate at 5 uM after 4 hrs by UPLC analysis. It is filed as ADME, cell-free, Canis lupus familiaris.
The nature of series [11]: in vivo. The settings on record: C57BL/6, mouse, iv, 1 mg/kg.
Series [12] can be described thus: Elimination half life in Sprague-Dawley rat at 1 mg/kg, iv or 3 mg/kg, po administered as solution measured up to 7 hrs by LC/MS/MS analysis. It is filed as ADME, organism-based. The settings on record: in vivo, read-out: beta t1/2 (converted).
The nature of series [13]: Clearance in Beagle dog at 10 mg/kg, po administered as solution measured up to 7 hrs by LC/MS/MS analysis. It is filed as ADME, organism-based, Canis lupus familiaris. The following applies: in vivo.
Series [14] relates to Rattus norvegicus. Put plainly: Clearance in Sprague-Dawley rat at 3 mg/kg, po administered as solution measured up to 7 hrs by LC/MS/MS analysis relative to hepatic blood flow. It is filed as ADME, organism-based. The settings on record: in vivo.
Series [15] relates to Rattus norvegicus. Put plainly: Dose normalized Cmax in Sprague-Dawley rat at 30 mg/kg, po administered as suspension measured up to 7 hrs by LC/MS/MS analysis. Type of series: ADME, organism-based. The following applies: in vivo.
Series [16] relates to Rattus norvegicus. The experiment in a line: Dose normalized AUC (0 to t) in Sprague-Dawley rat at 1 mg/kg, iv administered as solution measured up to 7 hrs by LC/MS/MS analysis. Type of series: ADME, organism-based. The following applies: in vivo.
The nature of series [17]: in vivo. The following applies: C57BL/6, mouse, po, 3 mg/kg.
The nature of series [18]: in vivo. The following applies: C57BL/6, mouse.
The test system of series [19] is Rattus norvegicus. Put plainly: Dose normalized AUC (0 to t) in Sprague-Dawley rat at 3 mg/kg, po administered as solution measured up to 7 hrs by LC/MS/MS analysis. Type of series: ADME, organism-based. The settings on record: in vivo.
The nature of series [20]: Tmax in Sprague-Dawley rat at 100 mg/kg, po administered as suspension measured up to 7 hrs by LC/MS/MS analysis. It is filed as ADME, organism-based. The settings on record: in vivo.
The nature of series [21]: Oral bioavailability in Sprague-Dawley rat at 3 mg/kg administered as solution measured up to 7 hrs by LC/MS/MS analysis. Type of series: ADME, organism-based. The settings on record: in vivo.
The nature of series [22]: Tmax in Sprague-Dawley rat at 3 mg/kg, po administered as solution measured up to 7 hrs by LC/MS/MS analysis. It is filed as ADME, organism-based. The settings on record: in vivo.
Series [23] has as its system Rattus norvegicus. The experiment in a line: Dose normalized AUC (0 to t) in Sprague-Dawley rat at 100 mg/kg, po administered as suspension measured up to 7 hrs by LC/MS/MS analysis. The settings on record: in vivo. It is filed as ADME, organism-based.
The subject of series [24] is Rattus norvegicus. The experiment in a line: Dose normalized Cmax in Sprague-Dawley rat at 100 mg/kg, po administered as suspension measured up to 7 hrs by LC/MS/MS analysis. It is filed as ADME, organism-based. The following applies: in vivo.
Series [25] concerns Rattus norvegicus. Put plainly: Dose normalized AUC (0 to t) in Sprague-Dawley rat at 3 mg/kg, po administered as suspension measured up to 7 hrs by LC/MS/MS analysis. It is filed as ADME, organism-based. The following applies: in vivo.
Series [26] is described as follows: Oral bioavailability in Beagle dog at 10 mg/kg administered as solution measured up to 7 hrs by LC/MS/MS analysis. Type of series: ADME, organism-based, Canis lupus familiaris. The settings on record: in vivo.
The test system of series [27] is Rattus norvegicus. The experiment in a line: Dose normalized Cmax in Sprague-Dawley rat at 3 mg/kg, po administered as suspension measured up to 7 hrs by LC/MS/MS analysis. Type of series: ADME, organism-based. The settings on record: in vivo.
Series [28] is described as follows: Tmax in Sprague-Dawley rat at 3 mg/kg, po administered as suspension measured up to 7 hrs by LC/MS/MS analysis. Type of series: ADME, organism-based. The following applies: in vivo.
The test system of series [29] is Rattus norvegicus. Put plainly: Dose normalized Cmax in Sprague-Dawley rat at 3 mg/kg, po administered as solution measured up to 7 hrs by LC/MS/MS analysis. Type of series: ADME, organism-based. The following applies: in vivo.
For series [30], the species on record is Mus musculus. The settings on record: in vivo, po, 3 mg/kg, 7 h.
Series [31] is filed under the species Mus musculus. The settings on record: in vivo, iv, 1 mg/kg.
A short description of series [32]: Elimination half life in Beagle dog at 0.3 mg/kg, iv or 10 mg/kg, po administered as solution measured up to 7 hrs by LC/MS/MS analysis. It is filed as ADME, organism-based, Canis lupus familiaris. The following applies: in vivo, read-out: beta t1/2 (converted).
In series [33] the test system is Rattus norvegicus. Put plainly: Dose normalized AUC (0 to t) in Sprague-Dawley rat at 30 mg/kg, po administered as suspension measured up to 7 hrs by LC/MS/MS analysis. It is filed as ADME, organism-based. The following applies: in vivo.
In series [34] the test system is Canis familiaris. The experiment in a line: Dose normalized AUC (0 to t) in Beagle dog at 10 mg/kg, po administered as solution measured up to 7 hrs by LC/MS/MS analysis. It is filed as ADME, organism-based, Canis lupus familiaris. The settings on record: in vivo.
The species entered for series [35] is Mus musculus. The settings on record: in vivo, po, 3 mg/kg.
Series [36] concerns Canis familiaris. The experiment in a line: Clearance in Beagle dog at 10 mg/kg, po administered as solution measured up to 7 hrs by LC/MS/MS analysis relative to hepatic blood flow. Type of series: ADME, organism-based, Canis lupus familiaris. The settings on record: in vivo.
Series [37] can be described thus: Clearance in Sprague-Dawley rat at 3 mg/kg, po administered as solution measured up to 7 hrs by LC/MS/MS analysis. The settings on record: in vivo. It is filed as ADME, organism-based.
In series [38] the test system is Canis familiaris. The experiment in a line: Dose normalized Cmax in Beagle dog at 10 mg/kg, po administered as solution measured up to 7 hrs by LC/MS/MS analysis. The settings on record: in vivo. It is filed as ADME, organism-based, Canis lupus familiaris.
The nature of series [39]: Tmax in Sprague-Dawley rat at 30 mg/kg, po administered as suspension measured up to 7 hrs by LC/MS/MS analysis. Type of series: ADME, organism-based. The following applies: in vivo.
Series [40] in a line: Tmax in Beagle dog at 10 mg/kg, po administered as solution measured up to 7 hrs by LC/MS/MS analysis. Type of series: ADME, organism-based, Canis lupus familiaris. The settings on record: in vivo.
Series [41] concerns Canis familiaris. Put plainly: Dose normalized AUC (0 to t) in Beagle dog at 0.3 mg/kg, iv administered as solution measured up to 7 hrs by LC/MS/MS analysis. The following applies: in vivo. It is filed as ADME, organism-based, Canis lupus familiaris.

In general, solubility refers to the dissolved amount per volume that the medium holds. For the compound `CC1(c2ccc(/C=C/C(=O)O)cc2)c2ccc(O)cc2CCN1c1cccc(F)c1` (stereo not drawn), in [1], the concentration in solution (solubility at 16 h) came to 561 µM (≈ 226 µg/mL). Besides, the “log(permeability)” value in series [2] was -4.3.
`CC(C)c1ccc(N2CCc3cc(O)ccc3[C@@]2(C)c2ccc(/C=C/C(=O)O)cc2)cc1`: the Drug metabolism entry in [3], in series [4], in series [5], in series [6], in series [7] and in series [8] was “Metabolite_Detected” each time. The Drug metabolism result in series [9] and in series [10] was “Metabolite_Detected” in each case.
As for `CC(C)c1ccc(N2CCc3cc(O)ccc3[C@]2(C)c2ccc(/C=C/C(=O)O)cc2)cc1`, the Drug metabolism entry in series [3], in [4], in series [5], in series [6], in series [7] and in series [8] was “Metabolite_Detected” throughout. For the same compound, the Drug metabolism result in [9] and in series [10] was “Metabolite_Detected” in each case.
By clearance is commonly meant a measure of how efficiently the substance is removed, as volume per time. Broadly, the CL/F is clearance divided by bioavailability, as obtained after extravascular dosing. As a reminder, the bioavailability is dose-corrected exposure relative to a reference, in per cent. By Tmax is commonly meant the time at which the peak concentration occurs. In turn, `CC(C)c1ccc(N2CCc3cc(O)ccc3C2(C)c2ccc(/C=C/C(=O)O)cc2)cc1` (stereo not drawn) came in with a clearance at 7 h in series [11] of 7 mL/min/kg. Moreover, the half-life in series [12] was 0.8 h; in series [32], 5 h. For the same compound, the CL/F came to 2.3 mL/min/kg in [13] and 14.9 mL/min/kg in series [37]. The figures for the CL in series [14] and in series [36] were 27% and 7%, respectively. For the same compound, the Cmax/dose in series [15] stood at 346 nM; in [24], 202 nM; in series [27] it was 602 nM; in series [29] it was 1199 nM; in series [30] it was 2621 nM; in [38] it was 1311 nM. The AUCt/dose was 2627 nM·h/mg in series [16]; 1586 nM·h/mg in series [19]; 918 nM·h/mg in series [23]; 955 nM·h/mg in series [25]; 1125 nM·h/mg in series [33]; 7994 nM·h/mg in series [34]. This compound registered an AUCt/dose in series [41] of 14347 nM·h/mg. Further, the solubility at 16 h in series [1] was 94 µM (≈ 40.2 µg/mL). This compound also showed a bioavailability at 7 h in [17] of 78%. This compound also gave a half-life at 7 h in series [18] of 1.1 h. In addition, the Tmax is 1.5 h in series [20]; 0.3 h in series [22]; 0.3 h in [28]; 2 h in series [39]; 1.2 h in [40]. The bioavailability was 60% in [21] and 56% in [26]. Moreover, the AUC/dose turned out to be 5808 nM·h/mg in [31] and 4533 nM·h/mg in series [35]. Moreover, in series [2], the “log(permeability)” value is listed as -4.1.
With `CC1(c2ccc(/C=C/C(=O)NCC(F)F)cc2)c2ccc(O)cc2CCN1c1ccc(F)cc1` (stereo not drawn), the solubility at 16 h in series [1] was less than 5 µM. In addition, in [2], the “log(permeability)” value was -4.2.
